Source: ChEMBL document CHEMBL3885861, “Open TG-GATES”

Species on record: Rattus norvegicus
Assay: Open TG-GATES - Regimen: Daily Repeat
Format: toxicity, organism-based, Sprague-Dawley
Set-up: regimen Daily Repeat, gender Male, age 6 weeks
Conditions: in vivo, po, 0 mg/kg, […], route gavage, dose level Control; for KIDNEY_L / KIDNEY_R / KIDNEY_TOTAL: tissue Kidney; for LIVER: tissue Liver; for A/G / ALP / ALT / AST / BUN / CRE / Ca / Cl / DBIL / GLC / IP / K / LDH / Na / PL / RALB / TBIL / TC / TG / TP / gamma-GTP: tissue Plasma

`Cc1cccc(C)c1OCC(C)N` (stereo unspecified) [MEXILETINE] showed a Lym (tissue Blood, time 28 day) of 83.2%, an MCH (tissue Blood, time 28 day) of 19.2 pg and an MCHC (tissue Blood, time 28 day) of 34.1%. For the same compound, the MCV (tissue Blood, time 28 day) was 56.3 fL, the Mono (tissue Blood, time 28 day) was 1.6% and the Neu (tissue Blood, time 28 day) was 13.8%. For the same compound, the PT (tissue Blood, time 28 day) was 16.1 s, the Plat (tissue Blood, time 28 day) was 91.8 x10_4/uL and the RBC (tissue Blood, time 28 day) was 774.2 x10_4/ul. For the same compound, the Ret (tissue Blood, time 28 day) was 2.9%, the WBC (tissue Blood, time 28 day) was 104.4 x10_2/uL and the KIDNEY_L (time 7 day) was 1.2 g. It also gave a KIDNEY_R (time 7 day) of 1.2 g, a KIDNEY_TOTAL (time 7 day) of 2.3 g and a KIDNEY_L (time 14 day) of 1.3 g. For the same compound, the KIDNEY_R (time 14 day) was 1.3 g, the KIDNEY_TOTAL (time 14 day) was 2.5 g and the KIDNEY_L (time 28 day) was 1.4 g. For the same compound, the KIDNEY_R (time 28 day) was 1.5 g, the KIDNEY_TOTAL (time 28 day) was 2.9 g and the LIVER (time 7 day) was 13.3 g. It also gave an LIVER (time 14 day) of 14.2 g, an LIVER (time 28 day) of 16.9 g and an A/G (time 7 day) of 1.1. For the same compound, the ALP (time 7 day) was 1475.8 IU/L, the ALT (time 7 day) was 42.2 IU/L and the AST (time 7 day) was 65 IU/L. It also gave a BUN (time 7 day) of 20.4 mg/dL, a CRE (time 7 day) of 0.2 mg/dL and a Ca (time 7 day) of 10.7 mg/dL. For the same compound, the Cl (time 7 day) was 105 meq/L, the DBIL (time 7 day) was 0 mg/dL and the GLC (time 7 day) was 200.4 mg/dL. The IP (time 7 day) was 7.5 mg/dL, the K (time 7 day) was 4.2 meq/L and the LDH (time 7 day) was 152.8 IU/L. The Na (time 7 day) was 141.4 meq/L, the PL (time 7 day) was 152.6 mg/dL and the RALB (time 7 day) was 3 g/dL. It also gave a TBIL (time 7 day) of 0.002 mg/dL, a TC (time 7 day) of 80.2 mg/dL and a TG (time 7 day) of 113.4 mg/dL. It also gave a TP (time 7 day) of 5.6 g/dL, a gamma-GTP (time 7 day) of 2 IU/L and an A/G (time 14 day) of 1.1. For the same compound, the ALP (time 14 day) was 1564.4 IU/L, the ALT (time 14 day) was 45.6 IU/L and the AST (time 14 day) was 68.8 IU/L. It also gave a BUN (time 14 day) of 19 mg/dL, a CRE (time 14 day) of 0.2 mg/dL and a Ca (time 14 day) of 10.6 mg/dL. It also gave a Cl (time 14 day) of 104.6 meq/L, a DBIL (time 14 day) of 0 mg/dL and a GLC (time 14 day) of 211.6 mg/dL. The IP (time 14 day) was 7.1 mg/dL, the K (time 14 day) was 4.2 meq/L and the LDH (time 14 day) was 164.6 IU/L. The Na (time 14 day) was 140.6 meq/L, the PL (time 14 day) was 147.8 mg/dL and the RALB (time 14 day) was 3 g/dL. It also gave a TBIL (time 14 day) of 0.004 mg/dL, a TC (time 14 day) of 70.2 mg/dL and a TG (time 14 day) of 143 mg/dL. For the same compound, the TP (time 14 day) was 5.8 g/dL, the gamma-GTP (time 14 day) was 2.2 IU/L and the A/G (time 28 day) was 0.9. For the same compound, the ALP (time 28 day) was 1046.8 IU/L, the ALT (time 28 day) was 37.2 IU/L and the AST (time 28 day) was 61.8 IU/L. The BUN (time 28 day) was 19.2 mg/dL, the CRE (time 28 day) was 0.2 mg/dL and the Ca (time 28 day) was 10.5 mg/dL. The Cl (time 28 day) was 104.2 meq/L, the DBIL (time 28 day) was 0 mg/dL and the GLC (time 28 day) was 194.8 mg/dL. The IP (time 28 day) was 6.6 mg/dL, the K (time 28 day) was 3.8 meq/L and the LDH (time 28 day) was 132.8 IU/L. The Na (time 28 day) was 143.2 meq/L, the PL (time 28 day) was 135 mg/dL and the RALB (time 28 day) was 3 g/dL. It also gave a TBIL (time 28 day) of 0.01 mg/dL, a TC (time 28 day) of 67.8 mg/dL and a TG (time 28 day) of 133.6 mg/dL. The TP (time 28 day) was 6.2 g/dL and the gamma-GTP (time 28 day) was 2 IU/L.
